Data reported in patent US8598168B2 (MethylGene Inc., priority 2006, dated 2013).

How the values were obtained:
[1] = system: human colon cancer HCT116 cells; assay: MTT Assay; type: cell-based; conditions: HCT-116, 72 hours, Table 21
Procedure: Compounds at various concentrations were added to human colon cancer HCT116 cells plated in 96-well plates. Cells were incubated for 72 hours at 37° C. in 5% CO2 incubator. MTT (3-[4,5-dimethylthiazol-2-yl]-2,5 diphenyl tetrazolium bromide, Sigma) was added at a final concentration of 0.5 mg/ml and incubated with the cells for 4 hours before an equal volume of solubilization buffer (50% N,N-dimethylformamide, 20% SDS, pH 4.7) was added onto cultured cells. After overnight incubation, solubilized dye was quantified by colorimetric reading at […] using a reference at 630 nM. OD values were converted to cell numbers according to a standard growth curve of the relevant cell line. The concentration which reduces cell numbers to 50% of those of DMSO-treated cells is determined as MTT IC50.

[2] = Log D (comparison with previously disclosed compounds); type: physicochemical; conditions: pH 7.4
HDAC-1 = HDAC-1 (Homo sapiens, UniProt Q13547); assay: Inhibition of Histone Deacetylase Enzymatic (HDAC-1) Activity; type: biochemical; conditions: Table 21
Procedure: The following protocol was used to assay the compounds of the invention.
The mixture was pre-incubated for 5 minutes at room temperature. The reaction was started by bringing the temperature to 37° C. and adding 15 μl substrate. Total reaction volume was 50 μl.

HDAC-1, sequence (Q13547 whole entry): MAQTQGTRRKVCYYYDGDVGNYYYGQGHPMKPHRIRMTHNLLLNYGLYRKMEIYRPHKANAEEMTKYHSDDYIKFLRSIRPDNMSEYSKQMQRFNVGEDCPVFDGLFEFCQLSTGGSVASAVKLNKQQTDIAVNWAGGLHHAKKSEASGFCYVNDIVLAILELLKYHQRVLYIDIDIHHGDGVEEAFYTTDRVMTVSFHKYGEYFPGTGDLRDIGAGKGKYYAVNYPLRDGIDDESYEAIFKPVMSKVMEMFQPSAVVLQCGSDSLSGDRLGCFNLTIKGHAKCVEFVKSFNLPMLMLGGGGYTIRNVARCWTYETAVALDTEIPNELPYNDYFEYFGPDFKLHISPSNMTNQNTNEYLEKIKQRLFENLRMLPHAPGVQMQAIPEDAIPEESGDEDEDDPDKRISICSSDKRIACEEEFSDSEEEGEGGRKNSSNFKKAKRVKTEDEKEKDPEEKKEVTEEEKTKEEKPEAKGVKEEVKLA

IC50 [1] [nM]	logD [2]	IC50 (HDAC-1) [nM]	Structure (SMILES)
< 1000	2.11	< 1000	CN(C)[C@@H]1CCN(Cc2ccc(C(=O)Nc3cc(-c4cccs4)ccc3N)cc2)C1 [compound 9, (R)—N-(2-Amino-5-(thiophen-2-yl)phenyl)-4-((3-(dimethylamino)pyrrolidin-1-yl)methyl)benzamide]
< 1000	3.03	< 1000	Nc1ccc(-c2cccs2)cc1NC(=O)c1ccc(CN2CCC[C@@H](O)C2)cc1 [compound 11, (R)-N-(2-amino-5-(thiophen-2-yl)phenyl)-4-((3-hydroxypiperidin-1-yl)methyl)benzamide]
1000 to 5000	3.86	< 1000	Nc1ccc(-c2cccs2)cc1NC(=O)c1ccc(CN2CCCCC2)cc1 [compound 12, N-(2-amino-5-(thiophen-2-yl)phenyl)-4-(piperidin-1-ylmethyl)benzamide]
< 1000	2.11	< 1000	CN(C)[C@H]1CCN(Cc2ccc(C(=O)Nc3cc(-c4cccs4)ccc3N)cc2)C1 [compound 81, (S)-N-(2-amino-5-(thiophen-2-yl)phenyl)-4-((3-(dimethylamino)-pyrrolidin-1-yl)methyl)-benzamide]
< 1000	2.6	< 1000	Nc1ccc(-c2cccs2)cc1NC(=O)c1ccc(CN2CC[C@H](O)C2)cc1 [compound 82, (S)-N-(2-amino-5-(thiophen-2-yl)phenyl)-4-((3-hydroxy-pyrrolidin-1-yl)methyl)-benzamide]
1000 to 5000	2.6	< 1000	Nc1ccc(-c2cccs2)cc1NC(=O)c1ccc(CN2CC[C@@H](O)C2)cc1 [compound 83, (R)-N-(2-amino-5-(thiophen-2-yl)phenyl)-4-((3-hydroxy-pyrrolidin-1-yl)methyl)-benzamide]
< 1000	2.15	< 1000	CC(=O)N[C@@H]1CCN(Cc2ccc(C(=O)Nc3cc(-c4cccs4)ccc3N)cc2)C1 [compound 84, (R)-4-((3-acetamido-pyrrolidin-1-yl)methyl)-N-(2-amino-5-(thiophen-2-yl)phenyl)-benzamide]
< 1000	2.15	< 1000	CC(=O)N[C@H]1CCN(Cc2ccc(C(=O)Nc3cc(-c4cccs4)ccc3N)cc2)C1 [compound 87, (S)-4-((3-acetamido-pyrrolidin-1-yl)methyl)-N-(2-amino-5-(thiophen-2-yl)phenyl)-benzamide]
< 1000	3.15	< 1000	Nc1ccc(-c2cccs2)cc1NC(=O)c1ccc(CN2CCCC2)cc1 [compound 90, N-(2-amino-5-(thiophen-2-yl)phenyl)-4-(pyrrolidin-1-ylmethyl)-benzamide]

Continued, molecule first:

Structure (SMILES)	IC50 [1] [nM]	logD [2]	IC50 (HDAC-1) [nM]
COCCN(CCOC)Cc1ccc(C(=O)Nc2cc(-c3cccs3)ccc2N)cc1 [compound 10, N-(2-amino-5-(thiophen-2-yl)phenyl)-4-((bis(2-methoxyethyl)amino)methyl)benzamide]	< 1000	3.1	< 1000
COCCN1CCN(Cc2ccc(C(=O)Nc3cc(-c4cccs4)ccc3N)cc2)CC1 [compound 13, N-(2-amino-5-(thiophen-2-yl)phenyl)-4-((4-(2-methoxyethyl)piperazin-1-yl)methyl)benzamide]	< 1000	2.22	< 1000
CCN(C)Cc1ccc(C(=O)Nc2cc(-c3cccs3)ccc2N)cc1 [compound 14, N-(2-amino-5-(thiophen-2-yl)phenyl)-4-((ethyl(methyl)amino)methyl)benzamide]	< 1000	3.2	< 1000
CC(C)N1CCN(Cc2ccc(C(=O)Nc3cc(-c4cccs4)ccc3N)cc2)CC1 [compound 15, N-(2-amino-5-(thiophen-2-yl)phenyl)-4-((4-isopropylpiperazin-1-yl)methyl)benzamide]	< 1000	2.15	< 1000
Nc1ccc(-c2cccs2)cc1NC(=O)c1ccc(CN2CCN(C3CCCC3)CC2)cc1 [compound 16, N-(2-amino-5-(thiophen-2-yl)phenyl)-4-((4-cyclopentylpiperazin-1-yl)methyl)benzamide]	< 1000	3.3	< 1000
CN(C)CCN(C)Cc1ccc(C(=O)Nc2cc(-c3cccs3)ccc2N)cc1 [compound 18, N-(2-amino-5-(thiophen-2-yl)phenyl)-4-(((2-(dimethylamino)ethyl)(methyl)amino)methyl)benzamide]	< 1000	1.64	< 1000
Nc1ccc(-c2cccs2)cc1NC(=O)c1ccc(CN2CCC(N3CCOCC3)CC2)cc1 [compound 77, N-(2-amino-5-(thiophen-2-yl)phenyl)-4-((4-morpholino-piperidin-1-yl)-methyl)-benzamide]	< 1000	2.59	< 1000
CN1CCN(Cc2ccc(C(=O)Nc3cc(-c4cccs4)ccc3N)cc2)CC1 [compound 78, N-(2-amino-5-(thiophen-2-yl)phenyl)-4-((4-methylpiperazin-1-yl)methyl)-benzamide]	< 1000	2.29	< 1000
CCN(CC)Cc1ccc(C(=O)Nc2cc(-c3cccs3)ccc2N)cc1 [compound 79, N-(2-amino-5-(thiophen-2-yl)phenyl)-4-((diethylamino)-methyl)benzamide]	< 1000	3.19	< 1000
Nc1ccc(-c2cccs2)cc1NC(=O)c1ccc(CN2CCN(CCn3ccnc3)CC2)cc1 [compound 80, 4-((4-(2-(1H-imidazol-1-yl)ethyl)-piperazin-1-yl)-methyl)-N-(2-amino-5-(thiophen-2-yl)phenyl)-benzamide]	< 1000	1.54	< 1000
Nc1ccc(-c2cccs2)cc1NC(=O)c1ccc(CN2CCN(c3ccncc3)CC2)cc1 [compound 85, N-(2-amino-5-(thiophen-2-yl)phenyl)-4-((4-(pyridin-4-yl)piperazin-1-yl)methyl)-benzamide]	< 1000	3.32	< 1000
Nc1ccc(-c2cccs2)cc1NC(=O)c1ccc(CN2CCC[C@H]2CN2CCCC2)cc1 [compound 86, (S)-N-(2-amino-5-(thiophen-2-yl)phenyl)-4-((2-(pyrrolidin-1-ylmethyl)-pyrrolidin-1-yl)methyl)-benzamide]	< 1000	0.86	< 1000
Nc1ccc(-c2cccs2)cc1NC(=O)c1ccc(CN2CCN(c3ccccn3)CC2)cc1 [compound 89, N-(2-amino-5-(thiophen-2-yl)phenyl)-4-((4-(pyridin-2-yl)piperazin-1-yl)methyl)-benzamide]	< 1000	3.38	< 1000
Nc1ccc(-c2cccs2)cc1NC(=O)c1ccc(CN2CCN(Cc3ccccc3)CC2)cc1 [compound 91, N-(2-amino-5-(thiophen-2-yl)phenyl)-4-((4-benzylpiperazin-1-yl)methyl)-benzamide]	< 1000	4.01	< 1000
CN(C)[C@H]1CCN(c2ccc(C(=O)Nc3cc(-c4cccs4)ccc3N)cc2)C1 [compound 101, (S)—N-(2-Amino-5-(thiophen-2-yl)phenyl)-4-(3-(dimethylamino)pyrrolidin-1-yl)benzamide]	< 1000	1.94	< 1000
CC(C)N1CCN(c2ccc(C(=O)Nc3cc(-c4cccs4)ccc3N)cc2)CC1 [compound 102, N-(2-amino-5-(thiophen-2-yl)phenyl)-4-(4-isopropyl-piperazin-1-yl)benzamide]	< 1000	1.52	< 1000
Nc1ccc(-c2cccs2)cc1NC(=O)c1ccc(N2CCN(C3CCCC3)CC2)cc1 [compound 103, N-(2-amino-5-(thiophen-2-yl)phenyl)-4-(4-cyclopentyl-piperazin-1-yl)-benzamide]	< 1000	2.68	< 1000
Nc1ccc(-c2cccs2)cc1NC(=O)c1ccc(N2CCC(N3CCOCC3)CC2)cc1 [compound 104, N-(2-amino-5-(thiophen-2-yl)phenyl)-4-(4-morpholino-piperidin-1-yl)benzamide]	< 1000	2.51	< 1000
Nc1ccc(-c2cccs2)cc1NC(=O)c1ccc(N2CCC(N3CCCC3)CC2)cc1 [compound 105, N-(2-amino-5-(thiophen-2-yl)phenyl)-4-(4-(pyrrolidin-1-yl)piperidin-1-yl)benzamide]	< 1000	1.6	< 1000
CCN(CC)CCSc1ccc(C(=O)Nc2cc(-c3cccs3)ccc2N)cc1 [compound 107, N-(2-amino-5-(thiophen-2-yl)phenyl)-4-(2-(diethyl-amino)-ethylthio)-benzamide]	–	2.58	< 1000
Nc1ccc(-c2cccs2)cc1NC(=O)N1CCN(Cc2ccc3c(c2)OCO3)CC1 [compound 316, N-(2-Amino-5-(thiophen-2-yl)phenyl)-4-(benzo[d][1,3]dioxol-5-ylmethyl)piperazine-1-carboxamide]	–	2.32	< 1000
Nc1ccc(-c2ccccc2)cc1NC(=O)C1CCN(S(=O)(=O)c2ccc([N+](=O)[O-])cc2)CC1 [compound 320, N-(4-Aminobiphenyl-3-yl)-1-(4-nitrophenylsulfonyl)piperidine-4-carboxamide]	–	3.21	< 1000
